According to ChEMBL document CHEMBL4619702, “Inhibitors of the Zika virus protease NS2B-NS3” (Bioorg Med Chem Lett, 2020):
Where a SMILES comes first, the peptide text is derived from it. The star is where a group is joined. NHBn = c1ccc(CN*)cc1

How the values were obtained:
Nonstructural protein 3 [1] = biological target: T1, Nonstructural protein 3 (Zika virus, UniProt A0A024AXB9); experiment: Inhibition of Zika virus NS2B-NS3 protease
Genome polyprotein [2] = biological target: T2, Genome polyprotein (West Nile virus, UniProt P06935); experiment: Inhibition of West Nile virus NS2B-NS3 protease
Genome polyprotein [3] = biological target: T2, Genome polyprotein; experiment: Binding affinity to West Nile virus NS2B-NS3 protease
Nonstructural protein 3 [4] = biological target: T1, Nonstructural protein 3; experiment: Binding affinity to Zika virus NS2B-NS3 protease
Nonstructural protein 3 [5] = biological target: T1, Nonstructural protein 3; experiment: (§1) Inhibition of Zika virus NS2B-NS3 protease by cell based assay
[6] = Allosteric inhibition of Flavivirus NS2B-NS3 protease
[7] = Allosteric inhibition of Flavivirus NS2B-NS3 protease by cell based assay; conditions: Orthoflavivirus
[8] = biological target: T3, Nonstructural protein 3 (Zika virus) (UniProt A0A024AXB9); experiment: Inhibition of Zika virus NS2B-NS3 protease assessed as as ratio of K(obs)/[I] using biotin-tagged peptide (P4-P1) as substrate
[9] = biological target: T3, Nonstructural protein 3 (Zika virus); experiment: as §1
Nonstructural protein 3 [10] = biological target: T1, Nonstructural protein 3; experiment: Allosteric inhibition of Zika virus NS2B-NS3 protease
Nonstructural protein 3 [11] = biological target: T1, Nonstructural protein 3; experiment: Inhibition of N-terminal His-tagged Zika virus NS2B-NS3 protease (1 to 187 residues) using Boc-Gly-Arg-Arg-AMC as substrate
Nonstructural protein 3 [12] = biological target: T1, Nonstructural protein 3; experiment: Binding affinity to N-terminal His-tagged Zika virus NS2B-NS3 protease (1 to 187 residues) using Boc-Gly-Arg-Arg-AMC as substrate

T2 sequence (P06935 1371-1501 limits assumed): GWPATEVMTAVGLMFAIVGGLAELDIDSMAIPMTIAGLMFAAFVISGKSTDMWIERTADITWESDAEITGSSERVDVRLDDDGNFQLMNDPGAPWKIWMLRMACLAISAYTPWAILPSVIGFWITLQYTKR
T2 sequence (P06935 1502-2120 limits assumed): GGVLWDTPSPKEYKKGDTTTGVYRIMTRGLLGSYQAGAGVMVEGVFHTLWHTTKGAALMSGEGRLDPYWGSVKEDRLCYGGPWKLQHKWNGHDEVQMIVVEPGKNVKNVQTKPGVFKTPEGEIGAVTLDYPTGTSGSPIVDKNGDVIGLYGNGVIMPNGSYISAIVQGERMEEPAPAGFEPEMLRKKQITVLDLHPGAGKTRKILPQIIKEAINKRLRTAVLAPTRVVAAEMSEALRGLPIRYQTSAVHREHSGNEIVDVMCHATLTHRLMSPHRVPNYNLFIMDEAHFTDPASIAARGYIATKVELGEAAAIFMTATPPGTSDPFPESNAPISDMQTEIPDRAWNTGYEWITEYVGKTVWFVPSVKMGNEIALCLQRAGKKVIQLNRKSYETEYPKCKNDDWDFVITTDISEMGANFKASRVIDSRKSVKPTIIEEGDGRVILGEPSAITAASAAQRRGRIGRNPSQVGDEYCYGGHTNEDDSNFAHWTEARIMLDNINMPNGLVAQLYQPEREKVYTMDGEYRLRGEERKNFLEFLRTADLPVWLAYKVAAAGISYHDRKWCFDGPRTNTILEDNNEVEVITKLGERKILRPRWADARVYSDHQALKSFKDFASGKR

`CC(C)[C@H](NC(=O)[C@H](C)N)C(=O)N1CCC[C@H]1C(=O)NCc1ccccc1` (H-Ala-Val-Pro-NHBn) showed a Ki (Nonstructural protein 3 [1]) of 140 nM.

Work on `CN[C@@H](C)C(=O)N[C@H]1CC[C@H]2CC[C@@H](C(=O)NC(c3ccccc3)c3ccccc3)N2C1=O` yielded an IC50 (Genome polyprotein [2]) of 1900 nM, a Kd (Genome polyprotein [3]) of 2000 nM and a Kd (Nonstructural protein 3 [4]) of 2000 nM. For the same compound, the IC50 (Nonstructural protein 3 [1]) was 1900 nM.

In the case of `CC(C)C[C@H]1C(=O)N2CCC[C@H]2[C@]2(O)O[C@](NC(=O)[C@@H]3C=C4c5cccc6[nH]c(Br)c(c56)C[C@H]4N(C)C3)(C(C)C)C(=O)N12` [BROMOCRIPTINE], the EC50 (Nonstructural protein 3 [5]) is reported as 13000 nM and the IC50 (Nonstructural protein 3 [1]) is reported as 21600 nM.

`C[C@@H]1CN(CC(=O)N2CC(C)(C)c3nc(CO)c(Cc4ccc(F)cc4)cc32)[C@@H](CN2CCOC[C@H]2C)CN1` [ASTX-660] showed a Ki (Nonstructural protein 3 [1]) of 800 to 8900 nM.

In the case of `C[C@@H]1CN(CC(=O)N2CCCC2)CCN1`, the IC50 [6] is reported as 380 nM and the EC50 [7] is reported as 1000 nM.

`CN[C@@H](C)C(=O)N[C@H](C(=O)N1CCC[C@H]1c1nc(C(=O)c2ccc(F)cc2)cs1)C1CCCCC1` showed a Ratio [8] of 2.94 ×10⁶ /M/s.

`CO[C@@H]1[C@@H](OC(N)=O)[C@@H](O)[C@H](Oc2ccc3c(O)c(NC(=O)c4ccc(O)c(CC=C(C)C)c4)c(=O)oc3c2C)OC1(C)C` [NOVOBIOCIN] showed an EC50 (Nonstructural protein 3 [5]) of 24800 nM and an IC50 (Nonstructural protein 3 [1]) of 14200 nM.

For `CN[C@@H](C)C(=O)N[C@H](C(=O)N1CC[C@H](C)[C@H]1C(=O)Nc1ccccc1-c1ncccn1)C1CCCCC1`, the Ki (Nonstructural protein 3 [1]) was 430 nM.

`CN[C@@H](C)C(=O)N[C@H](C(=O)N1CCC[C@H]1C(=O)Nc1sc(-c2ncco2)nc1-c1ccccc1)C1CCCCC1` [GDC-0917] gave an IC50 (Nonstructural protein 3 [1]) of 300 nM.

`O=C1OC2(c3ccccc31)c1cc(I)c(O)c(I)c1Oc1c2cc(I)c(O)c1I` [ERYTHROSINE] gave an EC50 (Nonstructural protein 3 [5]) of 600 nM and an IC50 (Nonstructural protein 3 [1]) of 1700 nM.

`Oc1cccc(-c2c3nc(c(-c4cccc(O)c4)c4ccc([nH]4)c(-c4cccc(O)c4)c4nc(c(-c5cccc(O)c5)c5ccc2[nH]5)CC4)C=C3)c1` [TEMOPORFIN] gave an EC90 [9] of 120 nM, an EC50 (Nonstructural protein 3 [5]) of 22 nM and an IC50 (Nonstructural protein 3 [1]) of 1100 nM.

Compound `C[C@@H]1CN(CC(=O)N2CC(C)(C)c3ncc(Cc4ccc(F)cc4)cc32)[C@@H](CN2CCOC[C@H]2C)CN1` has an IC50 (Nonstructural protein 3 [10]) of 820 nM.

Work on `CCN(CCO)CCCC(C)Nc1ccnc2cc(Cl)ccc12` (stereo unspecified) [HYDROXYCHLOROQUINE] yielded a Ki (Nonstructural protein 3 [1]) of 92300 nM.

With `CC[C@H](NC(=O)[C@H](C)NC)C(=O)N1C[C@@H](O)C[C@H]1Cc1c(-c2[nH]c3cc(F)ccc3c2C[C@@H]2C[C@H](O)CN2C(=O)[C@H](CC)NC(=O)[C@H](C)NC)[nH]c2cc(F)ccc12` [BIRINAPANT] the IC50 [6] was 200 nM and the EC50 (Nonstructural protein 3 [5]) was 300 to 600 nM.

`CN[C@@H](C)C(=O)N[C@H]1CN(C(=O)CC(C)C)CC[C@H]2CC[C@@H](C(=O)NC(c3ccccc3)c3ccccc3)N2C1=O` [XEVINAPANT] showed an IC50 (Nonstructural protein 3 [11]) of 4100 nM, a Ki (Nonstructural protein 3 [11]) of 13500 nM and a Kd (Nonstructural protein 3 [12]) of 9000 nM.

`CN[C@@H](C)C(=O)N[C@H]1CCCC[C@H]2CC[C@@H](C(=O)NC(c3ccccc3)c3ccccc3)N2C1=O` showed an IC50 (Nonstructural protein 3 [1]) of 100 nM.

With `Cc1ccc(C(=O)Nc2ccc(S(=O)(=O)O)c3cc(S(=O)(=O)O)cc(S(=O)(=O)O)c23)cc1NC(=O)c1cccc(NC(=O)Nc2cccc(C(=O)Nc3cc(C(=O)Nc4ccc(S(=O)(=O)O)c5cc(S(=O)(=O)O)cc(S(=O)(=O)O)c45)ccc3C)c2)c1` [SURAMIN] the Kd (Nonstructural protein 3 [5]) was 28000 nM, the EC50 (Nonstructural protein 3 [4]) was 1930 to 39800 nM and the IC50 (Nonstructural protein 3 [1]) was 47000 nM.
